# Measurements: patent US7189750B2, “Thiazole-based nitric oxide donors having at least two thiazole moieties and uses thereof” (priority 2004, dated 2007)
# Tests used:
# Type in all cases: cell-based
# [1] = test system: c-GMP in slices of thoracic aorta of rats; experiment: Cyclic-GMP measurement in aortic rat tissue (radioimmunoassay); conditions: for levels of cGMP as compared with GTN: isolated rat aorta; for cGMP Post-infusion / cGMP Pre-infusion: rat aorta; for cGMP Post-infusion: post-infusion (repeated treatment)
# Description: GTN (10^−6 M) was added to the chamber and, 1 minute after exposure to the drug, rings (usually 3–5) were taken, wrapped with aluminum foil and immediately frozen in liquid nitrogen for storage. Control sample group was treated with the vehicle solution only. At the time of analysis, rings were thawed, blotted over a dry gauzed and weighted. A known weight of tissue was homogenized in 2 ml ice-cold modified Hank's balanced salt solution containing (in gram/liter) NaCl 8; KCl 0.4; glucose 1; KH2PO4 0.06; Na2HPO4 0.047; Phenol red 0.017 and further containing 25 mM EDTA (disodium salt). The homogenate was centrifuged at 4000 g (force units) for 10 minutes at 2–4° C. and the supernatant was thereafter transferred into fresh pre-cooled test tube containing 1 ml of acetonitrile. The tubes were vortex mixed for a few seconds and subsequently centrifuged at 4000 g for 5 minutes at 2–4° C., to remove the precipitated protein. Each supernatant was transferred into a clean test tube and evaporated to dryness under a stream of nitrogen at 55° C. The dry residue was reconstituted with 10 volumes of Tris-EDTA buffer pH 7.5 (0.05 M Tris containing 4 mM EDTA). Aliquots of 100 μl of the reconstituted solution in duplicate were used for c-GMP measurements using Amersham RIA kit, as is described in Haj-Yehia & Benet [Pharmacology, 1995, 273, 1, pp. 94–100]. Standard curves were plotted with six concentrations (0, 0.5, 1, 2, 4 and 8 pmoles of c-GMP per tube).
# The NO-tolerance effect of GTN and NO-donor compounds according to the present invention was measured by following the production of c-GMP in slices of thoracic aorta of rats. Thus, the production of c-GMP was measured as described in the methods section above for the reference NO-donor compound GTN, and for the NO-donors of the present invention Pet-2, Pet-3, Pet-7, Pet-8, Pet-10, Pet-12, Pet-24, Pet-59, Pet-147, Pet-149, Pet-152, Pet-154 and Pet-155.
# isolated rat aorta [2] = experiment: In vitro induction of tolerance and cross-tolerance: vasorelaxation of pre-exposed rat aortic rings; conditions: for EC50: Rattus norvegicus; for tolerance induction in vitro: rings pre-treated with epinephrine and then with the same compound (0.44 mM)
# Description: Aortic rings were prepared as described hereinabove, and were exposed to 0.44 mM GTN (vehicle was water:ethanol:propyleneglycol at proportional ratio of 1:1:1) for 1 hour before CCRC construction, to thereby induce tolerance to nitroglycerine. At the end of the tolerance induction period, rings were thrice washed with the path buffer (Krebs-bicrbonate) every 15 minutes for the following hour and then CCRC for vasorelaxation on GTN-induced tolerance rings were constructed for GTN (pretreated versus untreated rings, FIG. 15), in order to verify the ability to induce and measure GTN tolerance induction in vitro
# Attempted induction of tolerance to the NO-donating compounds of the present invention was performed under the same conditions as for GTN. Thus, in an exemplary experiment, rings were exposed to 0.44 mM solution of Pet-3 in the attempt to induce tolerance for Pet-3. CCRC were then measured for the vasorelaxing effect of Pet-3 on a group of rings which were pre-exposed to Pet-3 as to induce tolerance to Pet-3, and for an untreated control group. The above protocol was repeated with Pet-2, Pet-7, Pet-8, Pet-12, Pet-24, Pet-43, Pet-149 and Pet-152.
# Cross-tolerance studies were conducted using the same technique described above for measuring vasorelaxation of aortic rings from rats. Two groups of aortic rings samples were pre-treated with GTN, then one group was measured for vasorelaxation by GTN and the second group for vasorelaxation by Pet-12, an exemplary NO-donor according to the present invention. For the opposite cross-tolerance studies, two groups of aortic rings samples were pre-treated with Pet-12, then one group was measured for vasorelaxation by GTN and the second group for vasorelaxation by Pet-12.
# isolated rat aorta [3] = experiment: In vitro vasorelaxation of epinephrine-contracted rat aortic rings (CCRC); conditions: for vasorelaxation effect as compared with glyceryltrinitrate: isolated rat aorta, 1 μM epinephrine
# Text: Male Sprague Dawley rats were anaesthetized using intraperitoneal injection of ketamine and xylazine (50 and 10 milligram per kilogram, respectively) and the thoracic aorta, the large upper portion of the descending aorta, starting at the caudal border of the chest bone, was removed thereafter, while carefully removing the paraadventetial tissue surrounding the vessel. Aortae were cut into rings of 4–5 millimeters and mounted onto the tissue path. The path buffer (Krebs-bicrbonate) was constantly gassed with carbogen and maintained at 37° C. The rings were preloaded under 2 g tension and equilibrated for 90 minutes, while refreshing the buffer every 15 minutes. After stabilization, the rings were contracted with epinephrine (1 μM). Cumulative Concentration-Response Curves (CCRC) were measured for the vasorelaxing effect induced by adding various concentrations, ranging from 10^−10 M to 10^−5 M of Pet-2, Pet-3, Pet-7, Pet-8, Pet-12, Pet-24, Pet-43, Pet-59, Pet-147, Pet-152 and Pet-154, and glyceryltrinitrate (GTN), according to the procedure described in Feelich et al., Molecular Pharmacology, 56:243–253 (1999). The vehicle, which was used for this experiment was water:ethanol:propyleneglycol at proportional ratio of 1:1:1.
# The vasorelaxing effect of the thiazole-derived NO-donors according to the present invention was measured on slices of thoracic aorta of rats contracted with epinephrine, as described hereinabove.
# [4] = vasorelaxation of rings pre-exposed to 0.44 mM of the same compound for 1 hour, given as negative log value, read-out: EC50 (converted)
# [5] = vasorelaxation of rings pre-exposed to 0.44 mM of the same compound for 1 hour, read-out: Concentration
# [6] = vasorelaxation, rat aortic rings contracted with 1 μM epinephrine, 10^−10 M to 10^−5 M, read-out: Concentration
# [7] = vasorelaxation, rat aortic rings contracted with 1 μM epinephrine, given as negative log value, read-out: EC50 (converted)
# [8] = Rattus norvegicus, read-out: Concentration
SMILES,levels of cGMP as compared with GTN [1],EC50 (isolated rat aorta [2]; [4]) [nM],EC50 (isolated rat aorta [2]; [5]) [nM],vasorelaxation effect as compared with glyceryltrinitrate (isolated rat aorta [3]),EC50 (isolated rat aorta [3]; [6]) [nM],EC50 (isolated rat aorta [3]; [7]) [nM],cGMP Post-infusion [1] [pmol/g tissue],cGMP Pre-infusion [1] [pmol/g tissue],EC50 (isolated rat aorta [2]; 1 h) [nM],"EC50 (isolated rat aorta [2]; 1 h, read-out: Concentration) [nM]",tolerance induction in vitro (isolated rat aorta [2]),EC50 (isolated rat aorta [3]; Rattus norvegicus) [nM],EC50 (isolated rat aorta [3]; [8]) [nM]
"Cc1nc(NC(=O)[C@@H](C)c2ccc(CC(C)C)cc2)sc1CCO[N+](=O)[O-] (stereo in doubt) [Pet-152, 2-(4-Isobutyl-phenyl)-N-[4-methyl-5-(2-nitrooxy-ethyl)-thiazol-2-yl]-propionamide]",increased,50.1,50.1,superior,50.1,50.1,,,,,,,
"Cc1nc(C)c(CCO[N+](=O)[O-])s1 [Pet-3, 2,4-Dimethyl-5-(2-nitrooxy-ethyl)-thiazole]",increased,,,superior,,,118 ± 10,122 ± 14,50.1,50.1,absence of tolerance induction,35.5,35.5
"Cc1nc(N(C)C)sc1CCO[N+](=O)[O-] [Pet-7, Dimethyl-[4-methyl-5-(2-nitrooxy-ethyl)-thiazol-2-yl]-amine]",increased,35.5,50.1,10 fold,28.2,28.2,123 ± 12,120 ± 12,,,absence of tolerance induction,,
"Cc1nc(-c2ccccc2)sc1CCO[N+](=O)[O-] [Pet-8, 4-Methyl-5-(2-nitrooxy-ethyl)-2-phenyl-thiazole]",increased,25.1,25.1,superior,28.2,20,136 ± 12,133 ± 10,,,,,
"Cc1nc(N)sc1CCO[N+](=O)[O-] [Pet-10, 4-methyl-5-(2-nitrooxy-ethyl)-thiazole-2-ylamine]",increased,,,,,,,,,,,,
"CNc1cncc(-c2nc(C)c(CCO[N+](=O)[O-])s2)n1 [Pet-24, Methyl-{6-[4-methyl-5-(2-nitrooxy-ethyl)-thiazol-2-yl]-pyrazin-2-yl}-amine]",increased,251,251,,200,200,112 ± 10,115 ± 14,,,absence of tolerance induction,,
"Cc1nc(Nc2nc(C)c(CCO[N+](=O)[O-])s2)sc1CCO[N+](=O)[O-] [Pet-43, Bis-[4-methyl-5-(2-nitrooxy-ethyl)-thiazol-2-yl]-amine]",,,,superior,,,,,251,251,absence of tolerance induction,158,159
"Cc1nc(-c2ccc(C(F)(F)F)cc2)sc1CCO[N+](=O)[O-] [Pet-59, 4-Methyl-5-(2-nitrooxy-ethyl)-2-(4-trifluoromethyl-phenyl)-thiazole]",increased,,,superior,79.4,79.4,,,,,,,
"CCNc1nc(C)c(CCO[N+](=O)[O-])s1 [Pet-147, Ethyl-[4-methyl-5-(2-nitrooxy-ethyl)-thiazol-2-yl]-amine]",increased,,,,31.6,31.6,,,,,,,
"Cc1nc(Nc2cccc3ccccc23)sc1CCO[N+](=O)[O-] [Pet-149, [4-Methyl-5-(2-nitrooxy-ethyl)-thiazol-2-yl]-naphthalen-1-yl-amine]",increased,39.8,43.3,superior,,,115 ± 14,112 ± 12,,,absence of tolerance induction,,
"Cc1nc(NC(=O)c2cccnc2)sc1CCO[N+](=O)[O-] [Pet-154, N-[4-methyl-5-(2-nitrooxy-ethyl)-thiazol-2-yl]-nicotinamide]",increased,39.8,39.8,,39.8,39.8,,,,,,,
"C=CCNc1nc(C)c(CCO[N+](=O)[O-])s1 [Pet-155, allyl-[4-methyl-5-(2-nitrooxy-ethyl)-thiazol-2-yl]-amine]",increased,50.1,50.1,superior,,,,,,,,,
